Data reported in patent publication US20230120597A1, “CO-AGONISTS AT GLP-1 AND GIP RECEPTORS SUITABLE FOR ORAL DELIVERY” (Novo Nordisk A/S, priority 2020, published 2023).
Starred links: 1 amine or outer side, 2 acyl side, 3 side chain; linkers in the order of their positions; H or OH if unused. Non-standard residues stand in square brackets, D forms with d. Residues, ends and D or L forms follow the SMILES beside them. Groups on a side chain read outwards from the residue. *: point of attachment. C18 diacid = O=C(O)CCCCCCCCCCCCCCCCC(=O)*; γGlu = O=C(O)[C@H](CCC(=O)[*:2])N[*:1]; εLys = N[C@@H](CCCCN[*:1])C(=O)[*:2]; Aib = CC(C)(N)C(=O)O

Assay: Pharmacokinetic study in dogs, oral dosing of tablet compositions with SNAC
Type: in vivo, Beagle dogs
Settings: male, beagle, dog, in vivo, po
Outline: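 The tablets held 3-4 mg compound plus 100-300 mg SNAC and were given to fasted male beagles (6-8 per group); non-compartmental PK per animal.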

SMILES: CC[C@H](C)[C@H](NC(=O)[C@H](Cc1ccccc1)NC(=O)[C@H](CCC(=O)O)NC(=O)[C@H](CCCNC(=N)N)NC(=O)[C@H](C)NC(=O)[C@H](C)NC(=O)[C@H](CCC(N)=O)NC(=O)[C@H](CCCCNC(=O)[C@@H](N)CCCCNC(=O)[C@@H](N)CCCCNC(=O)CC[C@H](NC(=O)CCCCCCCCCCCCCCCCC(=O)O)C(=O)O)NC(=O)[C@H](CCC(=O)O)NC(=O)[C@H](CC(C)C)NC(=O)[C@H](CC(C)C)NC(=O)[C@@H](NC(=O)[C@H](CO)NC(=O)[C@H](Cc1ccc(O)cc1)NC(=O)[C@H](CC(=O)O)NC(=O)[C@H](CO)NC(=O)[C@@H](NC(=O)[C@H](Cc1ccccc1)NC(=O)[C@@H](NC(=O)CNC(=O)[C@H](CCC(=O)O)NC(=O)C(C)(C)NC(=O)[C@@H](N)Cc1ccc(O)cc1)[C@@H](C)O)[C@@H](C)O)[C@@H](C)CC)C(=O)N[C@@H](CC(N)=O)C(=O)N[C@@H](Cc1c[nH]c2ccccc12)C(=O)N[C@@H](CC(C)C)C(=O)N[C@@H](CC(C)C)C(=O)N[C@@H](C)C(=O)NCC(=O)NCC(=O)N1CCC[C@H]1C(=O)N[C@@H](CO)C(=O)N[C@@H](CO)C(=O)NCC(=O)N[C@@H](C)C(=O)N1CCC[C@H]1C(=O)N1CCC[C@H]1C(=O)N1CCC[C@H]1C(=O)N[C@@H](CO)C(=O)O [Compound No. 15] (H-Y[Aib]EGTFTSDYSILLEK([εLys-εLys-γGlu-C18 diacid])QAAREFINWLLAGGPSSGAPPPS-OH)
- Tmax (Tmax): 1.5 h
- half-life (t1/2): 59 h
